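48-hour exposure; five concentrations; linearly interpolated endpoints. GI50 is the concentration that inhibits growth by half.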 The source made the active and inactive calls. No stated cut-off is given here; in the data, active = GI50 up to about 1.1 µM and inactive = higher.
Key:
Assay in all cases: NCI-60 cell line screen, 48 h
[1] = system: HT-29
[2] = system: MOLT-4
[3] = system: MDA-N
[4] = system: A549
[5] = system: NCI-H226
[6] = system: HOP-92
[7] = system: KM12
[8] = system: OVCAR-4
[9] = system: RXF 393
[10] = system: CAKI-1
[11] = system: OVCAR-3
[12] = system: A498
[13] = system: ACHN
[14] = system: NCI/ADR-RES
[15] = system: IGROV-1
[16] = system: SW-620
[17] = system: UACC-257
[18] = system: SK-MEL-5
[19] = system: SF-268

Measured: GI50

Cc1ccc2c(c1)C=CC1(O2)N(c2ccccc2)C(=S)OC1(C)C (stereo unspecified)
inactive: [1] 41.5 µM | [2] 29.9 µM | [3] 29.1 µM | [4] 67.5 µM | [5] > 100 µM | [6] 12 µM | [7] 34.5 µM | [8] 25.8 µM | [9] 73.3 µM | [10] > 100 µM | [11] 29.6 µM | [12] > 100 µM | [13] > 100 µM | [14] > 100 µM | [15] 10.1 µM | [16] 75.5 µM | [17] 45.1 µM | [18] 32.1 µM | [19] 89.5 µM

Cc1ccc(S(=O)(=O)N/C(=C\C=C\c2ccccc2)C(=O)C(C)(C)C)cc1
inactive: [1] > 100 µM | [2] > 100 µM | [3] > 100 µM | [4] 46.5 µM | [5] > 100 µM | [6] 22.7 µM | [7] > 100 µM | [8] 35.2 µM | [9] 37.8 µM | [10] > 100 µM | [11] > 100 µM | [12] 89.5 µM | [13] 58.5 µM | [14] 42.3 µM | [15] 50.5 µM | [16] > 100 µM | [17] 45.5 µM | [18] 56 µM | [19] 46.2 µM

COC(=O)c1ccc(/C=C2\CCc3ccccc3C2=O)cc1
inactive: [1] > 100 µM | [2] > 100 µM | [3] > 100 µM | [4] > 100 µM | [5] > 100 µM | [6] > 100 µM | [7] > 100 µM | [8] > 100 µM | [9] > 100 µM | [10] > 100 µM | [11] > 100 µM | [12] 34.4 µM | [13] > 100 µM | [14] > 100 µM | [15] > 100 µM | [16] > 100 µM | [17] > 100 µM | [18] > 100 µM | [19] > 100 µM

O=C1c2cc3c(cc2CC12Cc1ccccc1C2)CCC3
inactive: [1] 21.5 µM | [2] 19.9 µM | [3] 27.3 µM | [4] 44.4 µM | [5] 23.4 µM | [6] 23.9 µM | [7] 24.9 µM | [8] 50.2 µM | [9] 22.1 µM | [10] 15.5 µM | [11] 41.8 µM | [12] 34.4 µM | [13] 27.8 µM | [14] 28.4 µM | [15] 38.2 µM | [16] 45.8 µM | [17] 20.1 µM | [18] 18.3 µM | [19] 34.8 µM

Reference: ChEMBL document CHEMBL1201862, “PubChem BioAssay data set” (2004)
